Results taken from patent US5656662A, “Synthesis of optically pure 4-alkenyl- or 4-alkanyl-2-hydroxytetronic acids” (The Ohio State University Research Foundation, priority 1995, dated 1997).
pEC50: −log10 of the molar value.

Key:
Type in all cases: cell-based
peptidoleukotrienes = experiment: Peptidoleukotriene production by purified human monocytes; set-up: key: NE: No effect; INHIB: Inhibition; STIM: Stimulation; IC40: 40% Inhibitory Concentration; EC50: 50% Effective Concentration; TC: Tolerated Concentration; IA: Interferes with Assay
Description: This procedure measures the ability of test compounds to modulate the amount of peptidoleukotrienes produced by purified human monocytes. Compounds are tested for their ability to downregulate the secretion of peptidoleukotrienes from activated monocytes, or upregulate secretion of peptidoleukotrienes from unstimulated monocytes. Test compounds are incubated for ninety minutes with purified human monocytes at four dilutions over a range of three log10 concentrations. Where appropriate, zymosan is used to stimulate the monocytes.
The level of peptidoleukotrienes in the resultant supernatants is quantitated by immunoassay performed in a 96 well format. Peptidoleukotriene levels modulated by unknown compounds are determined by interpolation from a standard curve. All compounds are tested in duplicate with controls and standards.

tissue factor (TF) = experiment: Membrane bound tissue factor production from purified human monocytes; set-up: key to EFFECT on TISSUE FACTOR: NE: No effect; INHIB: Inhibition; STIM: Stimulation; IC40: 40% Inhibitory Concentration; EC50: 50% Effective Concentration; TC: Tolerated Concentration; IA: Interferes with Assay
Description: This assay determines the effect of test compounds on the production of membrane bound tissue factor (TF) from purified human monocytes. Compounds are tested for their ability to downregulate the production of TF in activated monocytes, or upregulate production of TF in unstimulated monocytes. Test compounds are incubated for sixteen hours with purified human monocytes at four dilutions over a range of three log10 concentrations. Where appropriate, lipopolysaccharide (LPS) is used to stimulate the monocytes.
After the above period of incubation, medium is aspirated from the monocytes, and the cells are solubilized in Triton-X 100. The level of TF in the soluble fraction is quantitated in a solid phase Enzyme-linked Immunoassay (EIA) performed in a 96 well format. TF present in the samples is captured by a specific monoclonal antibody immobilized on the well, and detected using a biotinylated antibody fragment specific for bound TF, followed by streptavidin conjugated to horseradish peroxidase and an appropriate substrate. The levels of TF are determined by interpolation of the resultant color change in the substrate from a standard curve. All supernatants are tested in duplicate with controls and standards.

TxA2 = TxA2 production by purified human monocytes; set-up: key to EFFECT on TxA2: NE: No effect; INHIB: Inhibition; STIM: Stimulation; IC40: 40% Inhibitory Concentration; EC50: 50% Effective Concentration; TC: Tolerated Concentration; IA: Interferes with Assay
Description: This procedure measures the ability of test compounds to modulate the amount of TxA2 (the major cyclo-oxygenase product) produced by purified human monocytes. Compounds are tested for their ability to downregulate the secretion of TxA2 from activated monocytes, or upregulate secretion of TxA2 from unstimulated monocytes. Test compounds are incubated for ninety minutes with purified human monocytes at four dilutions over a range of three log10 concentrations. Where appropriate, zymosan is used to stimulate the monocytes.
The level of TxA2 in the resultant supernatants is quantitated by immunoassay performed in a 96 well format. TxA2 levels modulated by unknown compounds are determined by interpolation from a standard curve. All compounds are tested in duplicate with controls and standards.

IL-1β = IL-1β secretion from purified human monocytes; set-up: key to EFFECT on IL1β: NE: No effect; INHIB: Inhibition; STIM: Stimulation; IC40: 40% Inhibitory Concentration; EC50: 50% Effective Concentration; TC: Tolerated Concentration; IA: Interferes with Assay
Description: This assay determines the effect of test compounds on the secretion of IL-1β from purified human monocytes.
(§1) Compounds are tested for their ability to downregulate the production of IL-1β in activated monocytes, or upregulate secretion of IL-1β in unstimulated monocytes. Test compounds are incubated for sixteen hours with purified human monocytes at four dilutions over a range of three log10 concentrations. Where appropriate, lipopolysaccharide (LPS) is used to stimulate the monocytes.
The level of IL-1β in the resultant supernatants is quantitated in a solid phase Enzyme-linked Immunoassay (EIA) performed in a 96 well format. IL-1β present in the samples is captured by a specific monoclonal antibody immobilized on the well, and probed with an anti-IL-1β polyclonal antibody conjugated to horseradish peroxidase, followed by an appropriate substrate. The levels of IL-1β are determined by interpolation of the resultant color change in the substrate from a standard curve. All supernatants are tested in duplicate with controls and standards.
as §1, with “This assay determines the effect of test compounds on the secretion of IL-1β from purified human monocytes. Compounds” for “Compounds”

## CCCCCCCCCCCCCC/C=C\CC[C@@H]1OC(=O)C(O)=C1O [(S)-3,4-Dihydroxy-5-[(Z)-3-octadecenyl]-2(5H)-furanone]
peptidoleukotrienes; STIMULATED
  EFFECT on PEPTIDOLEUKOTRIENES: NE
peptidoleukotrienes; UNSTIMULATED
  EFFECT on PEPTIDOLEUKOTRIENES: NE
Tissue factor (TF); Homo sapiens, Monocyte, STIMULATED, STIM
  pEC50: 4.46
Tissue factor (TF); STIMULATED
  EFFECT on TISSUE FACTOR: STIM
Tissue factor (TF); UNSTIMULATED
  EFFECT on TISSUE FACTOR: NE
TxA2; Homo sapiens, Monocyte, STIMULATED, INHIB
  pEC50: 5.30
TxA2; STIMULATED
  EFFECT on TxA2: INHIB
TxA2; UNSTIMULATED
  EFFECT on TxA2: NE
IL-1β; Homo sapiens, Monocyte, 16 h, STIMULATED, INHIB, 40% Inhibitory Concentration, read-out: IC40, IL1β
  IC40: 50 µM
IL-1β; STIMULATED
  EFFECT on IL1β: INHIB
IL-1β; UNSTIMULATED
  EFFECT on IL1β: NE
